{"source": "patent US20040038861A1", "about": "“Methods and compositions for normalizing lipid levels in mammalian tissues” (priority 2001, published 2004)", "assay_type_in_all_cases": "cell-based, rat", "key": {"[1]": {"tested_on": "soleus muscle", "assay": "Lipid metabolites (free fatty acid, glycerol, triglyceride; enzymatic analysis) in isolated soleus muscle from normally fed rats"}, "[2]": {"tested_on": "soleus muscle", "assay": "Triglyceride and free fatty acid content (enzymatic) in isolated soleus muscle of rats fed high fat diets", "details": "1 h", "description": "High-fatted rats. Groups of male Wistar rats (n=21/diet) were ad libitum fed high-fat diets containing standard rat chow to which 40% (w/w) of lard, corn oil or olive oil had been added, from the time of weaning (age=21 d) until sacrifice at 50 d. Triacylglycerol from lard contains predominantly saturated fatty acids; that from corn oil […], see Table 4.\n(§1) Soleus muscle tissue isolation and incuhation.Immersion and incubation media was Krebs-Henseleit buffer (KHB) containing 118.5 mM NaCl, 4.75 mM KCl, 1.18 mM MgSO4.7H2O and KH2PO4, 24.8 mM NaHCO3, 2.54 mM CaCl2 and 10 mM d-glucose. The medium was gassed continuously with 95% O2/5% CO2. […] Soleus muscles of both legs were excised keeping the tissue immersed in KHB; muscles were separated into two equal parts and transferred to the incubation flasks. At the completion of incubation the muscles were snap frozen in liquid nitrogen, and then trimmed of connective tissue and all visible fat. The muscle strips were stored at −80° C. until analysis.\n(§2) Lipid extraction and chromatographic separation of fatty acids. Total lipids were extracted from muscle strips by a modified version of the method of Bligh and Dyer (Gorski et al., 1988, Mol & Cell Biochem 178:113-118; 1. Bligh et al., 1959, Can J Biochem Physiol 37: 911-917). Muscles were homogenised (Soniprep 150) in 0.4 ml of deionised water. Solvent volumes used herein were varied according to the water content of the muscle (ie muscle weight) as described (Bligh & Dyer, supra). 2 vols of methanol containing 0.005% butylated hydroxy toluene (BHT) and 1 vol chloroform were added to the muscle suspension. Homogenates were vortexed at maximum speed for 2 minutes and centrifuged at 2,500 g for 4 minutes. Supernatants were recovered and pellets re-extracted with 2 vol methanol, 1 vol chloroform and 0.8 vol 0.2 N HCl. Residues were vortexed for 2 min then centrifuged at 3,500 g for 3 min. After centrifugation the combined supernatants were diluted with 2v each of milli Q water and chloroform and the phases separated by centrifugation at 3,500 g for 4 minutes. The lower chloroform phase was recovered, neutralised by dropwise addition of 0.2 N methanolic NH4OH and evaporated down in a stream of N2. The samples were stored at −80° C. until required.\n(§3) Aminopropyl phase (250 mg) was packed into 16 ml teflon columns with teflon frits placed at the top and bottom of the bonded phase. Columns were placed in a Vac Elut apparatus and washed twice with 2 ml portions of hexane (Prasad et al., 1988, J Chromato 428: 221-228; Kaluzny et al., 1985, J Lipid Res 26: 135-140). The dry lipid samples were taken up in two 0.150 ml portions of chloroform and applied to the column under atmospheric pressure. After adsorption the neutral lipids were eluted with 4 ml of chloroform-2-propanol (2:1, v/v) and the free fatty acids eluted with 4 ml of 2% acetic acid in diethyl ether. The solvent containing the free fatty acids was dried under a stream of N2.\nDetermination of tissue free fatty acids and triacylglycerol concentration by enzymatic analyses. Free fatty acids were separated from total lipid, evaporated under a stream of N2 and stored at −80° C. until analysis. Samples were dissolved in 50 μl of warm ethanol (35-40° C.), and 0.625 ml of a Triton X-100 (6% w/v) solution was added once the ethanol reached room temperature. The solution was stirred for 30 min, then made up to 0.825 ml with the Triton solution. Free fatty acids were quantified using a commercial method (Boehringer Mannheim) adapted for micro analyses (Cobas Mira, Roche Diagnostics), with palmitic acid standards. Triacyl glycerol levels were quantified in the total lipid fraction (Pointe Scientific) with a glycerol standard.\nTotal lipid was extracted and quantitated. Results are shown in FIGS. 18A NEFA and 18B triglyceride."}, "[3]": {"tested_on": "soleus muscle", "assay": "Individual free fatty acids by gas chromatography in isolated soleus muscle from normally fed rats", "procedure": "Animal models. Normallyfed rats. All protocols were approved by the University of Auckland Animal Ethics Committee. Male Wistar rats, (age=50 d) weighing 200-250 g, were housed in a constant 12 h/12 h-light/dark cycle and received standard rat-chow (Diet 86, NRM, Auckland) and water ad libitum. The standard diet contained 5% fat (w/w), which comprised mainly beef tallow. The triglyceride, total and free fatty acid contents of representative samples of this diet were analyzed, and are shown in Table 3. Rats were anaesthetized by intraperitoneal injection of sodium pentobarbital (45 mg/kg body weight) then sacrificed by cervical dislocation.\nas §1, §2, §3\nGas-liquid chromatographic analysis. Dry free fatty acid residues were processed for derivatisation of methyl esters by the boron trifluoride-methanol method (Prasad, supra). 1 ml of boron trifluoride in methanol (BF3) was added to each sample, the sample vials were heated at 70° C. for 5 minutes, shaken vigorously, and baked for a further 10 minutes. Once the samples reached room temperature 0.5 ml milli Q water was added, the sample vials shaken, 0.1 ml heptane was added and the sample shaken again. 0.05 ml of the top heptane layer was removed for GLC analysis. […]"}, "[4]": {"details": "normally fed rats, hormone 1 hour, GC"}, "[5]": {"details": "normally fed rats, hormone 1 hour, GC, listed as Amylin"}}, "data": [{"substance": "Rat amylin", "values": [{"measurement": "soleus muscle free fatty acid content, agonist alone", "setting": "[1]; 100 nM, 1 h, normal-fed rats (FIG. 3A, 3B)", "value": "216 ± 26", "unit": "nmol/g"}, {"measurement": "triacylglycerol (triglyceride) content", "setting": "[1]; soleus, normally fed rats, 60-min, 100 nM amylin or CGRP-1, 4.4 μM norepinephrine, control 1.17±0.15, not significant", "value": "1.7 ± 0.26", "unit": "µmol/g"}, {"measurement": "intramuscular free fatty acid content", "setting": "[1]; soleus, normally fed rats, 1 h, 100 nM amylin or CGRP-1, 4.4 μM norepinephrine, 23.7 nM insulin, control 78±21", "value": "216 ± 22", "unit": "nmol/g"}, {"measurement": "intramuscular glycerol content", "setting": "[1]; soleus, normally fed rats, 1 h, 100 nM amylin or CGRP-1, 4.4 μM norepinephrine, control 0.07±0.007", "value": "0.03 ± 0.004", "unit": "nmol/g"}, {"measurement": "soleus muscle triglyceride content", "setting": "[2]; diet with 40% added lard, 100 nM amylin or CGRP-1, 4.4 μM norepinephrine, control 1.14±0.16", "value": "0.71 ± 0.07", "unit": "µmol/g"}, {"measurement": "soleus muscle free fatty acid content", "setting": "[2]; diet with 40% added lard, 100 nM amylin or CGRP-1, 4.4 μM norepinephrine, control 43±8", "value": "102 ± 12", "unit": "nmol/g"}, {"measurement": "soleus muscle triglyceride content", "setting": "[2]; diet with 40% corn oil, 100 nM, control 0.89±0.06 μmol/g", "value": "0.49±0.07 [mol/g"}, {"measurement": "soleus muscle free fatty acid content", "setting": "[2]; diet with 40% corn oil, 100 nM, control 35±4", "value": "75 ± 9", "unit": "nmol/g"}, {"measurement": "soleus muscle triglyceride content", "setting": "[2]; diet with 40% olive oil, 100 nM, control 0.83±0.1", "value": "0.44 ± 0.4", "unit": "µmol/g"}, {"measurement": "soleus muscle free fatty acid content", "setting": "[2]; diet with 40% olive oil, 100 nM, control 15±3", "value": "85 ± 12", "unit": "nmol/g"}, {"measurement": "Total free fatty acids", "setting": "[3]; 1 hour, GC, hormone concentrations 100 nM for all", "value": "0.636 ± 0.05", "unit": "nmol/g wwt"}, {"measurement": "free fatty acid C14:0 as percentage of total resting fatty acid", "setting": "[3]; normally fed rats, 1 hour", "value": 3.4, "unit": "%"}, {"measurement": "free fatty acid C15:0 as percentage of total resting fatty acid", "setting": "[3]; normally fed rats, 1 hour", "value": 15.4, "unit": "%"}, {"measurement": "free fatty acid C16:0 as percentage of total resting fatty acid", "setting": "[3]; normally fed rats, 1 hour", "value": 2.6, "unit": "%"}, {"measurement": "free fatty acid C16:1 (n-7) as percentage of total resting fatty acid", "setting": "[3]; normally fed rats, 1 hour", "value": 15.8, "unit": "%"}, {"measurement": "free fatty acid C16:1 (n-9) as percentage of total resting fatty acid", "setting": "[3]; normally fed rats, 1 hour", "value": 7.2, "unit": "%"}, {"measurement": "free fatty acid C17:0 as percentage of total resting fatty acid", "setting": "[3]; normally fed rats, 1 hour", "value": 10.7, "unit": "%"}, {"measurement": "free fatty acid C18:0 as percentage of total resting fatty acid", "setting": "[3]; normally fed rats, 1 hour", "value": 2.9, "unit": "%"}, {"measurement": "free fatty acid C18:1 (n-7) as percentage of total resting fatty acid", "setting": "[3]; normally fed rats, 1 hour", "value": 1.3, "unit": "%"}, {"measurement": "free fatty acid C18:1 (n-9) as percentage of total resting fatty acid", "setting": "[3]; normally fed rats, 1 hour", "value": 1.6, "unit": "%"}, {"measurement": "free fatty acid C18:2 as percentage of total resting fatty acid", "setting": "[3]; normally fed rats, 1 hour", "value": 1.1, "unit": "%"}, {"measurement": "free fatty acid C18:3 as percentage of total resting fatty acid", "setting": "[3]; normally fed rats, 1 hour", "value": 3.7, "unit": "%"}, {"measurement": "free fatty acid C20:0 as percentage of total resting fatty acid", "setting": "[3]; normally fed rats, 1 hour", "value": 4.5, "unit": "%"}, {"measurement": "free fatty acid C20:4 as percentage of total resting fatty acid", "setting": "[3]; normally fed rats, 1 hour", "value": 1.0, "unit": "%"}, {"measurement": "free fatty acid C20:5 as percentage of total resting fatty acid", "setting": "[3]; normally fed rats, 1 hour", "value": 1.4, "unit": "%"}, {"measurement": "free fatty acid C22:4 as percentage of total resting fatty acid", "setting": "[3]; normally fed rats, 1 hour", "value": 9.1, "unit": "%"}, {"measurement": "free fatty acid C22:6 as percentage of total resting fatty acid", "setting": "[3]; normally fed rats, 1 hour", "value": 3.3, "unit": "%"}, {"measurement": "free fatty acid adrenic C22:4", "setting": "[3]; [4]", "value": "0.008 ± 0.003", "unit": "nmol/g wwt"}, {"measurement": "free fatty acid arachidic C20:0", "setting": "[3]; [4]", "value": "0.008 ± 0.002", "unit": "nmol/g wwt"}, {"measurement": "free fatty acid arachidonic C20:4", "setting": "[3]; [4]", "value": "0.016±0.002", "unit": "nmol/g wwt"}, {"measurement": "free fatty acid cervonic C22:6", "setting": "[3]; [4]", "value": "0.03±0.004", "unit": "nmol/g wwt"}, {"measurement": "free fatty acid linoleic C18:2", "setting": "[3]; [4]", "value": "0.058 ± 0.006", "unit": "nmol/g wwt"}, {"measurement": "free fatty acid linolenic C18:3", "setting": "[3]; [4]", "value": "0.01 ± 0.002", "unit": "nmol/g wwt"}, {"measurement": "free fatty acid margaric C17:0", "setting": "[3]; [4]", "value": "0.013 ± 0.0022", "unit": "nmol/g wwt"}, {"measurement": "free fatty acid myristic C14:0", "setting": "[3]; [4]", "value": "0.026 ± 0.0028", "unit": "nmol/g wwt"}, {"measurement": "free fatty acid oleic C18:1", "setting": "[3]; [4]", "value": "0.076 ± 0.0082", "unit": "nmol/g wwt"}, {"measurement": "free fatty acid palmitic C16:0", "setting": "[3]; [4]", "value": "0.21 ± 0.0188", "unit": "nmol/g wwt"}, {"measurement": "free fatty acid palmitoleic (n-7) C16:1", "setting": "[3]; [4]", "value": "0.015 ± 0.0025", "unit": "nmol/g wwt"}, {"measurement": "free fatty acid palmitoleic (n-9) C16:1", "setting": "[3]; [4]", "value": "0.008±0.0013", "unit": "nmol/g wwt"}, {"measurement": "free fatty acid pentadecanoic C15:0", "setting": "[3]; [4]", "value": "0.013 ± 0.002", "unit": "nmol/g wwt"}, {"measurement": "free fatty acid stearic C18:0", "setting": "[3]; [4]", "value": "0.125 ± 0.0058", "unit": "nmol/g wwt"}, {"measurement": "free fatty acid timnodonic C20:5", "setting": "[3]; [4]", "value": "0.005 ± 0.0007", "unit": "nmol/g wwt"}, {"measurement": "free fatty acid vaccenic C18:1", "setting": "[3]; [4]", "value": "0.015 ± 0.0015", "unit": "nmol/g wwt"}, {"measurement": "free fatty acid arachidonic C20:4", "setting": "[3]; [5]", "value": "0.016 ± 0.002", "unit": "nmol/g wwt"}, {"measurement": "free fatty acid cervonic C22:6", "setting": "[3]; [5]", "value": "0.03 ± 0.004", "unit": "nmol/g wwt"}, {"measurement": "free fatty acid palmitoleic (n-9) C16:1", "setting": "[3]; [5]", "value": "0.008 ± 0.0013", "unit": "nmol/g wwt"}]}]}
